From ChEMBL document CHEMBL1128984, “Synthesis and biological activity of novel tricyclic -lactams” (1996)

Experiments:
Format in all cases: functional
Staphylococcus aureus [1] = assay: In vitro antibacterial activity against Staphylococcus aureus 663.
Clostridium perfringens = assay: In vitro antibacterial activity against Clostridium perfringens 615.
Escherichia coli = assay: In vitro antibacterial activity against Escherichia coli 1850.
Enterococcus faecalis = assay: In vitro antibacterial activity against […] faecalis 850E.
Staphylococcus aureus [2] = assay: In vitro antibacterial activity against Staphylococcus aureus 853.
Staphylococcus aureus [3] = assay: In vitro antibacterial activity against Staphylococcus aureus 1131.
Pseudomonas aeruginosa = assay: In vitro antibacterial activity against Pseudomonas aeruginosa 1911.

For C[C@@H](O)[C@H]1C(=O)N2C(C(=O)O)=C(SCCNC=N)C[C@H]12.O [IMIPENEM], the MIC (Staphylococcus aureus [1]) was 0.06 µg/mL, the MIC (Clostridium perfringens) was 0.03 µg/mL and the MIC (Escherichia coli) was 0.5 µg/mL. The MIC (Enterococcus faecalis) was 2 µg/mL, the MIC (Staphylococcus aureus [2]) was 0.12 µg/mL and the MIC (Staphylococcus aureus [3]) was 4 µg/mL. The MIC (Pseudomonas aeruginosa) was 4 µg/mL.

In the case of CO[C@H]1CC[C@H]2C1=C(C(=O)[O-])N1C(=O)[C@H]([C@@H](C)O)[C@@H]21.[Na+], the MIC (Staphylococcus aureus [1]) was 0.25 µg/mL, the MIC (Clostridium perfringens) was 0.12 µg/mL and the MIC (Escherichia coli) was 0.5 µg/mL. It also gave an MIC (Enterococcus faecalis) of 2 µg/mL, an MIC (Staphylococcus aureus [2]) of 0.5 µg/mL and an MIC (Staphylococcus aureus [3]) of 8 µg/mL. It also gave an MIC (Pseudomonas aeruginosa) of 32 µg/mL.

C[C@@H](O)[C@H]1C(=O)N2C(C(=O)[O-])=C3CCC[C@H]3[C@H]12.[Na+] was tested, and the MIC (Staphylococcus aureus [1]) was 1 µg/mL, the MIC (Clostridium perfringens) was 1 µg/mL and the MIC (Escherichia coli) was 2 µg/mL. For the same compound, the MIC (Enterococcus faecalis) was 16 µg/mL, the MIC (Staphylococcus aureus [2]) was 0.5 µg/mL and the MIC (Staphylococcus aureus [3]) was 8 µg/mL. It also gave an MIC (Pseudomonas aeruginosa) greater than 32 µg/mL.
